In patent publication EP2348038A1, “Method for determining the activity of transglutaminase factor XIIIa” (PHILIPPS-UNIVERSITÄT MARBURG, priority 2010, dated 2011):
Peptide text beside a SMILES is read from it. * marks the point of attachment. pNA = O=[N+]([O-])c1ccc(N*)cc1

Legend:
FXllla = target: T1, FXllla (Homo sapiens, UniProt P00488); experiment: Initial experiments: cleavage by FXIIIa of Glu(pNA) peptides derived from the Berichrom substrate sequence; format: biochemical
T1 sequence (P00488 39-732 limits assumed): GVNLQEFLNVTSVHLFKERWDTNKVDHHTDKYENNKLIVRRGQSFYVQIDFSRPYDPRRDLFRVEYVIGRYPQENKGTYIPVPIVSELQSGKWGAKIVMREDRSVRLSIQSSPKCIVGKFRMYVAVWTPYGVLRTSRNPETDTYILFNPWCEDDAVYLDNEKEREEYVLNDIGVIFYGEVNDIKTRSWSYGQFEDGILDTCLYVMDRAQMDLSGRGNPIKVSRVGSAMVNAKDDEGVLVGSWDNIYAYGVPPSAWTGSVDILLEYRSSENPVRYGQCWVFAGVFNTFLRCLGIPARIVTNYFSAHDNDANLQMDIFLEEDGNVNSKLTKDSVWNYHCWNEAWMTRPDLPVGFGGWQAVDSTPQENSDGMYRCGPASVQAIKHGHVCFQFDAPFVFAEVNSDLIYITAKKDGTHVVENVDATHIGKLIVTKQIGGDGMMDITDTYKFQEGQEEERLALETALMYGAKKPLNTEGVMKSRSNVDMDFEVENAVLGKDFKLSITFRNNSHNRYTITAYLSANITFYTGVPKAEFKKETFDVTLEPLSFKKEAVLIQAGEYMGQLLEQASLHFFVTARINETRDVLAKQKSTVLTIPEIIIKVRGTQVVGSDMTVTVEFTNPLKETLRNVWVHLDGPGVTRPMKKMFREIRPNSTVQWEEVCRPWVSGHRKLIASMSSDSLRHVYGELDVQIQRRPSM

Faktor XIIIa = target: T2, Faktor XIIIa (Homo sapiens, UniProt P00488); experiment: Cleavage of pNA substrates by activated factor XIIIa, absorbance at 405 nm (Michaelis-Menten kinetics and pre-test); format: biochemical; conditions: for Vmax: change of absorbance at 405 nm per s, enzyme ca. 1,25 Einheiten/ml; for Vmax / Substratspaltung (Vortest): 37 °C; for Substratspaltung (Vortest): pre-test at constant substrate concentration, 405 nm
T2 construct: Aktivierung des Zymogens FXIII zu Faktor XIIIa; purchased Aventis Behring Fibrogammin HS
T2 sequence (P00488 39-732 limits assumed): T1 sequence (P00488 39-732 limits assumed)
Experimental: 250 Einheiten lyophilisiertes Fibrogammin HS (Aventis Behring) wurden in 4 ml Wasser gelöst, als 100 µl Portionen aliquotiert und bei -80 °C gelagert. 100 µl dieser Lösung enthalten 6,25 Einheiten FXIII.
100 µl des aliqotierten Fibrogammins (entspricht 6,25 Einheiten) wurden mit 500 µl TBS-Puffer (50 mM Tris-HCl, pH 7,5 in 0,9% (w/v) NaCl), 360 µl einer 0.9 % NaCl-Lösung, 10 µl einer 1 M CaCl2-Lösung und 20 µl einer Thrombinlösung (Rinderthrombin: 14,2 U in 20 µl) versetzt. Der Ansatz wurde 20 min bei 37 °C inkubiert, danach wurden 10 µl einer Lösung mit rekombinantem Hirudin zugesetzt (r-Hirudin: HBW 023 mit 13442 IU mg^-1, Stammlösung des r-Hirudin = 1 mg/ml). Dieser Aktivierungsansatz besitzt ein Gesamtvolumen von 1 ml, der aktivierte Faktor Xllla wurde bei 37 °C aufbewahrt und für die folgenden kinetischen Messungen verwendet.
Die Messungen wurden bei 405 nm und 37 °C mit einem Microplate Reader der Firma Labsystems (iEMS Reader MF) mit folgendem Messansatz durchgeführt: • 150 µl TBS-Puffer (siehe oben, der Puffer kann gegebenenfalls auch eine Aminkomponente enthalten, beispielsweise H-Gly-Ethylester oder H-Gly-Gly-Ethylester oder ein anderes Amin, falls vorhanden ist die finale Konzentration des Amins im Messansatz 2,5 mM oder höher) • 50 µl Substratlösung • 50 µl Enzymlösung (im Messansatz ca. 1,25 Einheiten/ml)
Sämtliche Lösungen wurden vor Benutzung bei 37 °C aufbewahrt, vor Zugabe der FXllla-Lösung wurde die Mikroreadermessplatte nochmals 5 min bei 37 °C im Messgerät temperiert. Nach Zugabe der FXllla-Lösung wurde die Substratspaltung gestartet und die Änderung der Absorption bei 405 nm gemessen. Für einen Vortest wurde eine konstante Substratkonzentration verwendet. […] Wir haben vermutet, dass vor allem die Aminosäuren N- und C-terminal des Glu(pNA)-Restes wichtig für die Substraterkennung sind, deshalb wurde das N-terminale Glycin und das an dritter Position befindliche Serin innerhalb der Berichromsequenz durch andere Aminosäurereste ersetzt. Durch den Vortest wurde festgestellt, dass einige dieser Substrate deutlich schneller als die Derivate S1 und S2 gespalten werden. Für ausgewählte Substrate wurden die Substratkonzentrationen im Messansatz variiert und die bestimmten Umsatzgeschwindigkeiten als Funktion der Substratkonzentration entsprechend der Michaelis-Menten-Gleichung v=Vmax·[S]/(Km+[S]) aufgetragen und somit die kinetischen Konstanten Km und Vmax bestimmt, wobei Vmax in der Einheit Absorptionsänderung bei 405 nm/s erhalten wurde. Dies ist in Fig. 1 und Fig. 2 gezeigt.

SMILES | Spaltung durch FXllla (FXllla) | Vmax (Faktor XIIIa; pNA substrates) | other results
CC[C@H](C)[C@H](NC(=O)[C@@H](NC(=O)[C@H](CCCCN)NC(=O)[C@H](CO)NC(=O)[C@H](CCC(=O)Nc1ccc([N+](=O)[O-])cc1)NC(=O)CNC(=O)[C@@H]1CCCN1C(=O)CNC(=O)[C@@H](N)CC(C)C)C(C)C)C(=O)NCC(N)=O [H-Leu-Gly-Pro-Gly-Glu(pNA)-Ser-Lys-Val-Ile-Gly-NH2] (H-LGPGE(pNA)SKVIG-NH2) | nur sehr langsam von FXllla gepalten | – | –
CC[C@H](C)[C@H](NC(=O)[C@@H](NC(=O)[C@H](CCCCN)NC(=O)[C@H](CO)NC(=O)[C@@H](N)CCC(=O)Nc1ccc([N+](=O)[O-])cc1)C(C)C)C(=O)NCC(N)=O [H-Glu(pNA)-Ser-Lys-Val-Ile-Gly-NH2] (H-E(pNA)SKVIG-NH2) | fast gar nicht oder nur sehr langsam gepalten | – | –
CC[C@H](C)[C@H](NC(=O)[C@@H](NC(=O)[C@H](CCCCN)NC(=O)[C@@H](NC(=O)[C@H](CCC(=O)Nc1ccc([N+](=O)[O-])cc1)NC(=O)[C@@H](N)Cc1ccc(O)cc1)C(C)C)C(C)C)C(=O)NCC(N)=O [Substrat S10, H-Tyr-Glu(pNA)-Val-Lys-Val-Ile-Gly-NH2] (H-YE(pNA)VKVIG-NH2) | – | 0,95 × 10^-4 dOD/s | –
CC[C@H](C)[C@H](NC(=O)[C@@H](NC(=O)[C@H](CCCCN)NC(=O)[C@H](CO)NC(=O)[C@H](CCC(=O)Nc1ccc([N+](=O)[O-])cc1)NC(=O)CN)C(C)C)C(=O)NCC(N)=O [Substrat S2, H-Gly-Glu(pNA)-Ser-Lys-Val-Ile-Gly-NH2] (H-GE(pNA)SKVIG-NH2) | – | – | Substratspaltung (Vortest) (Faktor XIIIa): nur langsam umgesetzt
CC[C@H](C)[C@H](NC(=O)[C@@H](NC(=O)[C@H](CCCCN)NC(=O)[C@H](CO)NC(=O)[C@H](CCC(=O)Nc1ccc([N+](=O)[O-])cc1)NC(C)=O)C(C)C)C(=O)NCC(N)=O [Ac-Glu(pNA)-Ser-Lys-Val-Ile-Gly-NH2] (Ac-E(pNA)SKVIG-NH2) | fast gar nicht oder nur sehr langsam gepalten | – | –
CC[C@H](C)[C@H](NC(=O)[C@@H](NC(=O)[C@H](CCCCN)NC(=O)[C@H](CO)NC(=O)[C@H](CCC(=O)Nc1ccc([N+](=O)[O-])cc1)NC(=O)CNC(=O)[C@@H]1CCCN1C(=O)CN)C(C)C)C(=O)NCC(N)=O [H-Gly-Pro-Gly-Glu(pNA)-Ser-Lys-Val-Ile-Gly-NH2] (H-GPGE(pNA)SKVIG-NH2) | fast gar nicht oder nur sehr langsam gepalten | – | –
CC(C)C[C@H](NC(=O)[C@@H]1CCCN1C(=O)[C@H](CO)NC(=O)[C@@H](NC(=O)[C@H](CC(N)=O)NC(=O)[C@H](CCC(=O)O)NC(=O)[C@H](CCC(=O)Nc1ccc([N+](=O)[O-])cc1)NC(=O)[C@@H](N)CC(N)=O)C(C)C)C(N)=O [Substrat S1, H-Asn-Glu(pNA)-Glu-Asn-Val-Ser-Pro-Leu-NH2] (H-NE(pNA)ENVSPL-NH2) | – | – | Substratspaltung (Vortest) (Faktor XIIIa): praktisch kaum gespalten
CC[C@H](C)[C@H](NC(=O)[C@@H](NC(=O)[C@H](CCCNC(=N)N)NC(=O)[C@@H](NC(=O)[C@H](CCC(=O)Nc1ccc([N+](=O)[O-])cc1)NC(=O)[C@@H](N)Cc1ccc(O)cc1)C(C)C)C(C)C)C(=O)NCC(N)=O [Substrat S16, H-Tyr-Glu(pNA)-Val-Arg-Val-Ile-Gly-NH2] (H-YE(pNA)VRVIG-NH2) | – | 0,8 × 10^-4 dOD/s | Eignung als Substrat (Faktor XIIIa; pNA substrates, see Fig. 2): geeignete Substrate
CC[C@H](C)[C@H](NC(=O)[C@@H](NC(=O)[C@H](CCCCN)NC(=O)[C@@H](NC(=O)[C@H](CCC(=O)Nc1ccc([N+](=O)[O-])cc1)NC(=O)[C@@H](N)Cc1ccc(O)cc1)C(C)C)C(C)C)C(N)=O [Substrat S12, H-Tyr-Glu(pNA)-Val-Lys-Val-Ile-NH2] (H-YE(pNA)VKVI-NH2) | – | 1.33 × 10^-4 dOD/s | –
CC[C@H](C)[C@H](NC(=O)[C@@H](NC(=O)[C@H](CCCCN)NC(=O)[C@H](CO)NC(=O)[C@H](CCC(=O)Nc1ccc([N+](=O)[O-])cc1)NC(=O)CNC(=O)[C@@H]1CCCN1)C(C)C)C(=O)NCC(N)=O [H-Pro-Gly-Glu(pNA)-Ser-Lys-Val-Ile-Gly-NH2] (H-PGE(pNA)SKVIG-NH2) | fast gar nicht oder nur sehr langsam gepalten | – | –
